These results are taken from US20200016058A1, “HORNY LAYER FUNCTION IMPROVING AGENT” (Ajinomoto Co., Inc., priority 2017, published 2020).

Experiment [1] relates to filaggrin, involucrin, transglutaminase 1, keratin 10, and loricrin. The conditions noted are these: cited from earlier work.
The test system of another experiment is filaggrin. In words: Gene expression test using normal human epidermal keratinocytes (RT-PCR), filaggrin. Format: cell-based. Particulars: Keratinocyte, 48 hours, relative value to control, read-out: FLG (filaggrin) gene expression amount. The method, then: (§1) Normal human epidermal keratinocytes (Kurabo Industries Ltd.) were cultured with HuMedia KG2 (Kurabo Industries Ltd.) at 37° C. and 5% CO2 under saturated vapor. Cells that have become confluent were seeded in a 6-well plate with a seeding density of 3.0×10^5 (cells/well).
(§2) For each evaluation sample, each D-amino acid adjusted in the culture medium so as to be 100 μM or 500 μM was used. On the next day of seeding, each evaluation sample was adjusted to be 100 μM or 500 μM, and each well culture medium was exchanged. Culturing was performed for 48 hours, RNA was extracted from the cells using RN easy mini kit (Qiagen), which was synthesized into cDNA using High-Capacity cDNA Reverse Transcription Kit with RNase Inhibitor (Thermo Fisher). With this cDNA as a template, a sample added group and a control group were compared with each other by the RT-PCR method (7500 fast system (Thermo Fisher)) to evaluate gene expression amounts of filaggrin, involucrin, loricrin, keratin 10, and transglutaminase 1. In Table 4, FLG, IVL, K10, LOR, and TGM indicate filaggrin, involucrin, keratin 10, loricrin, and transglutaminase 1, respectively.

Another experiment concerns loricrin. The experiment is described as follows: Gene expression test using normal human epidermal keratinocytes (RT-PCR), loricrin. Format: cell-based. The conditions noted are these: 48 hours, relative value to control. On the procedure:
as §1, §2

Another experiment concerns laminin 332. The conditions noted are these: reported in WO 2011/040082; cited from earlier work.
Another experiment relates to involucrin. In words: Gene expression test using normal human epidermal keratinocytes (RT-PCR), involucrin. Format: cell-based. Particulars: Keratinocyte, 48 hours, relative value to control, read-out: IVL (involucrin) gene expression amount. On the procedure: as §1, §2
The subject of a further experiment is transglutaminase 1. In words: Gene expression test using normal human epidermal keratinocytes (RT-PCR), transglutaminase 1. The experiment is classed as cell-based. The conditions noted are these: 48 hours, relative value to control. On the procedure:
as §1, §2

The test system of experiment [2] is filaggrin, involucrin, loricrin, keratin 10, and transglutaminase 1. The experiment is described as follows: Gene expression test using normal human epidermal keratinocytes, text summary over the target genes. The experiment is classed as cell-based. Particulars: 100 μM or 500 μM, summary of Table 4; for expression amounts of the respective target genes: all five target genes. The method, then: as §1, §2

For the next experiment, the system named is keratin 10. In words: Gene expression test using normal human epidermal keratinocytes (RT-PCR), keratin 10. Format: cell-based. Particulars: Keratinocyte, 48 hours, relative value to control, read-out: K10 (keratin 10) gene expression amount. The method, then: as §1, §2
The conditions of experiment [3]: JP 2012-006870; determined only by the subjectivity of subjects; cited from earlier work.
For experiment [4] the following is noted: orally administered; cited filing; cited from earlier work.

Where a SMILES comes first, the peptide text is derived from it.

Consider `NCC(=O)N1CCC[C@H]1C(=O)O` [glycylproline] (H-Gly-Pro-OH), for which, in experiment [1] (applicant's assessment of the prior art), the “expression promotion action of moisture retention-related proteins such as filaggrin” value is recorded as “weak”. Besides, in [1] (reported in WO 2014/175001 and JP 2012-232920), the “expression of filaggrin, involucrin, transglutaminase 1, keratin 10, and loricrin” value is reported as “promoted”.

Turning to `N[C@H](CC(=O)O)C(=O)O` [D-Asp, D-aspartic acid], the figures for the fold induction at 100 µM with filaggrin, in the experiment on involucrin and in the experiment with keratin 10 were 1.35, 1.49 and 2.43, respectively. For the same compound, the fold induction at 500 µM was determined as 1.45 with filaggrin, 1.42 in the experiment with involucrin and 2.1 with keratin 10. Further, the “LOR (loricrin) gene expression amount” value with loricrin (100 μM) was 2.34; in the experiment with loricrin (500 μM), 2.10. Moreover, the “laminin 332 production promotion effect” value in the experiment on laminin 332 is reported as “not expressed”. Further, the “TGM (transglutaminase 1) gene expression amount” value (“TGM” for short) in the experiment with transglutaminase 1 (100 μM) turned out to be 1.13; in the experiment on transglutaminase 1 (500 μM) it was 1.20. In experiment [2], the “expression amounts of the respective target genes” value is “increases”.

For the compound `N[C@H](Cc1ccccc1)C(=O)O` [D-Phe, D-phenylalanine], the fold induction at 500 µM with filaggrin was 1.52; with involucrin it was 1.32; in the experiment with keratin 10, 1.32. Also, the “LOR (loricrin) gene expression amount” value with loricrin (500 μM) is listed as 1.78. The “TGM” value in the experiment on transglutaminase 1 (500 μM) turned out to be 1.26. For the same compound, the “expression amounts of the respective target genes” value in experiment [2] was “increases”.

In the case of `CC[C@H](C)[C@@H](N)C(=O)O` [D-allo-Ile, D-allo-isoleucine], the fold induction at 100 µM came out at 1.3 in the experiment with filaggrin, 1.18 in the experiment on involucrin and 1.31 in the experiment with keratin 10. In addition, the values for the fold induction at 500 µM in the experiment on filaggrin, in the experiment with involucrin and with keratin 10 were 1.21, 1.13 and 1.41, respectively. Moreover, in the experiment on loricrin (100 μM), the “LOR (loricrin) gene expression amount” value came to 1.31. Further, the “TGM” value in the experiment on transglutaminase 1 (500 μM) is 1.27. The “expression amounts of the respective target genes” value in experiment [2] is reported as “increases”.

On to `N[C@H](Cc1c[nH]c2ccccc12)C(=O)O` [D-Trp, D-tryptophan], for which the fold induction at 100 µM in the experiment with filaggrin was found to be 1.77; in the experiment on involucrin, 2.05; in the experiment with keratin 10, 2.44. The fold induction at 500 µM with filaggrin is 3.3; with involucrin it was 2.43; with keratin 10, 3.43. Further, the “LOR (loricrin) gene expression amount” value with loricrin (100 μM) is listed as 1.71; in the experiment on loricrin (500 μM), 3.45. Further, the “TGM” value with transglutaminase 1 (100 μM) turned out to be 1.42; in the experiment with transglutaminase 1 (500 μM), 1.50. Besides, in [2], the “expression amounts of the respective target genes” value is reported as “increases”.

On to `NCCCC[C@@H](N)C(=O)O` [D-Lys, D-lysine], for which the fold induction at 100 µM is 1.48 in the experiment on filaggrin, 1.27 with involucrin and 1.35 with keratin 10. Also, the values for the fold induction at 500 µM with filaggrin, with involucrin and in the experiment with keratin 10 were 1.29, 1.72 and 2.16, respectively. Further, the “LOR (loricrin) gene expression amount” value in the experiment on loricrin (100 μM) was found to be 2.02; in the experiment on loricrin (500 μM), 1.39. The moisture retaining effect entry in [3] is “expressed”. Besides, the “TGM” value with transglutaminase 1 (100 μM) was 1.12. Moreover, the “expression amounts of the respective target genes” value in experiment [2] was “increases”.

`NC(=O)C[C@@H](N)C(=O)O` [D-Asn, D-asparagine]: the results for the fold induction at 500 µM in the experiment with filaggrin, in the experiment with involucrin and in the experiment on keratin 10 were 1.55, 1.34 and 1.21, respectively. Also, in the experiment with loricrin (500 μM), the “LOR (loricrin) gene expression amount” value was determined as 1.80. Also, in [2], the “expression amounts of the respective target genes of filaggrin, involucrin, keratin 10, and loricrin” value is given as “increases”.

Turning to `NCCCC[C@H](N)C(=O)O` [L-lysine, reference compound], the moisture retaining effect entry in [3] is “expressed”.

`O=C(O)[C@H]1C[C@H](O)CN1` [D-hydroxyproline, reference compound]: the “laminin 332 production promotion effect” value in the experiment on laminin 332 was “promote the production of laminin 332”.

Take `C[C@@H](N)C(=O)O` [D-Ala, D-alanine]: the fold induction at 100 µM in the experiment on filaggrin is 1.23; in the experiment on involucrin, 1.28; with keratin 10 it was 1.47. Also, the figures for the fold induction at 500 µM with filaggrin, in the experiment with involucrin and with keratin 10 were 1.18, 1.15 and 1.21, respectively. Further, in the experiment with laminin 332, the “laminin 332 production promotion effect” value is recorded as “promote the production of laminin 332”. Also, the “TGM” value in the experiment with transglutaminase 1 (100 μM) is on record as 1.20. Further, the “expression amounts of the respective target genes of filaggrin, involucrin, keratin 10, and transglutaminase 1” value in experiment [2] was “increases”.

As to `N[C@H](CCC(=O)O)C(=O)O` [D-Glu, D-glutamic acid], the fold induction at 500 µM with filaggrin was 1.69; in the experiment on involucrin, 1.34; in the experiment on keratin 10, 1.25. Further, the TEWL value result in [4] is given as “reduces”. Moreover, in the experiment on loricrin (500 μM), the “LOR (loricrin) gene expression amount” value is on record as 2.07. Besides, the “TGM” value in the experiment with transglutaminase 1 (500 μM) was 1.13. The “expression amounts of the respective target genes” value in [2] is “increases”.
